Experiments:
[1] = Bioavailability of calcium citrate malate (statement); conditions: even under neutral conditions
physchem = experiment: physchem
Source text: The exact method for determining this is described hereinafter.
The method of solubility used to determine the data in Table I, is described in the Analytical Methods section below.

Compound | bioavailability [1] | solubility (physchem) [mg/mL]
calcium citrate malate | bioavailable | 
O=C(O)CC(O)C(=O)O (racemic) [calcium malate] |  | 660
